# Data from patent US20100222285A1, “METHOD OF CONTROLLING THE PROLIFERATION OF VASCULAR ENDOTHELIAL CELLS AND INHIBITING LUMEN FORMATION” (Rare Sugar Production Technical Research Laboratories, LLC, priority 2004, published 2010).
# Entries after “also recorded” stand apart in the source; their conditions may differ. Like-named read-outs stand apart in the source and are kept apart here.
# Legend:
# [1] = system: Human umbilical cord vascular endothelial cells (HUVEC); assay: Experiment of growth: HUVEC cell number by WST-8 after 48 hrs; assay type: cell-based; settings: for antagonism of the growth inhibitory effect by D-glucose: co-existence of 20 mM D-glucose; for inhibition at 20000 µM: 20 mM, read-out: inhibition of growth to the control group
# Experimental: Human umbilical cord vascular endothelial cells (HUVEC) were purchased as primary cultured cells from KURABO (Kurabo Co., Osaka, Japan) and the cells up to P8 were used in experiments. The cells were inoculated on a 96-well plate at a rate of 3000 cells/well, and allowed to stand in Humedia EG2 (Kurabo) overnight (37° C., 5% CO2). Next morning, the medium was replaced by 90 μl of 2% FBS-containing Humedia EB2 (Kurabo), to which was then added 10 μl of additive, and after a lapse of 48 hrs the number of cells was counted. No medium was exchanged during this period. In counting, a tetrazolium salt WST-8 was added to each well (0.5 mM), and after 2 hrs the absorbance was measured at 450 nm. The tetrazolium salt added was reduced with an intracellular dehydrogenase to yield formazan depending on the number of cells in the well. In advance, the absorbance at 450 nm was confirmed to show a linearity within the range of 500 to 12000 cells in the well.
# [2] = system: human endothelial cells and fibroblasts; assay: Experiment of luminal formation: concurrent culture, CD31 staining, area of the lumen; assay type: cell-based; settings: for effect on the luminal formation: Example 1, 0.1-20 mM; for effect on the luminal formation of HUVEC: Example 2 (36 species), incubation for 10 days; for antagonism of the luminal formation inhibitory effect by D-glucose: co-existence of 20 mM D-glucose; for inhibition of the acceleration of luminal formation by VEGF: with VEGF; for inhibition at 20000 µM: 20 mM
# Experimental: Using a concurrent culture system of human endothelial cells and fibroblasts planted on a 24-well plate (Kurabo Co., Osaka, Japan), the culture medium was replaced by culture media containing a variety of additives at the early stage of luminal formation. Every 3 days, the medium was exchanged with the additive; 10 day after incubation, the endothelial cell only was stained by using mouse anti-human CD31 antibody (Kurabo Co., Osaka, Japan), goat anti-mouse IgG AlkP Conjugate (Kurabo Co., Osaka, Japan), and BCPI (5-bromo-4-chloro-3-indolyl phosphate) (Kurabo Co., Osaka, Japan) to photograph. The visualized area of the lumen was measured by means of NIH image software.
# HUVEC = assay: 14C-glucose up-take in vascular endothelial cell; assay type: cell-based, human; settings: sugars 20 mM (2 mM for 2DG), 48 hours; for effect on the glucose up-take of HUVEC: both culture media ([GLU]=0.1 mM and 4.5 mM), VEGF 10 ng/mL; for effect on the glucose up-take accelerated by VEGF: with VEGF 10 ng/mL
# Experimental: Most of the physiological actions of monosaccharides are likely to be caused by the structural similarity to D-glucose, and one of the mechanisms is considered to be an influence on glucose metabolism. Then, in order to elucidate the influence on metabolism, the effect of HUVEC on the glucose up-take was examined for FRU, ALO, PSI, ALL, 2DG, MAN, and GAL. ^14C-Glucose was added to a culture medium, and the incorporated amount after 48 hours was counted by a scintillation counter. HUVEC was inoculated on a 24-well plate at a rate of 12000 cells/well. The medium was allowed to stand in 400 μL of Humedia EB2+2% FBS overnight. Next day, the medium was replaced by a medium containing ^14C-glucose. The medium used in replacement was the total 400 μL/well of medium containing ^14C-glucose (360 μL)+saline/VEGF (20 μL)+saline/RS (20 μL). The stock solution of ^14C-glucose 100 Bq/μL saline was diluted 10-fold with 2% FBS-containing medium (glucose-free or low glucose) to give a culture medium of 10 Bq/μL. The experiment was carried out on a lower glucose medium (final concentration [GLU]=0.1 mM) and on a high glucose medium ([GLU]=4.5 mM). ^14C-glucose was added at 3600 Bq/well. Further, FRU: D-fructose, ALO: D-allose, PSI: D-psicose, ALL: allitol, 2DG: 2-deoxy glucose, MAN: D-mannose, or GAL: D-galactose was added to the medium as an additive at 20 mM (provided 2 mM for 2DC). Irritation for growth was also carried out with VEGF (10 ng/mL). After a lapse of 48 hours, the well was washed twice with PBS, to which was then added 200 μL of 2% Triton, of which 180 μL was used as a sample for scintillation counter. The incorporation of ^14C-glucose into the HUVEC cells was calculated from the count in each well in the unit of nmol/well and depicted in a graph.
# [3] = Basic safety tests (mutagenicity, biodegradable test, 3 acute toxicity tests); settings: oral acute toxicity, skin and ophthalmic primary irritation, by a designated organ
# Description: The most important and highest hurdle in the development of approved drugs/quasi drugs or foods is to confirm safety of the rare sugar as a new substance. As the most basic safety tests, mutagenicity, biodegradable test and 3 acute toxicity tests (oral acute toxicity test, skin primary irritation test, ophthalmic primary irritation test) are decided. Since rare sugars are monosaccharides naturally occurring in very small quantities, it is necessary to examine exactly, though they are expected to be safe. We requested of a designated organ to examine the basic safety test on 3 species of rare sugars, i.e., D-psicose, D-allose and allitol. As a result, it was confirmed that there was no problem in any of the rare sugars.
# [4] = cited from earlier work; for Ald type (%): aldehyde structure; for Fra α (%): furanose α-anomer; for Fra β (%): furanose β-anomer; for Pira β (%): pyranose β-anomer; for Pira α (%): pyranose α-anomer
# [5] = Example 2 (36 species), 48 hours
compound,measurement,setting,value
"O=CC[C@@H](O)[C@H](O)[C@H](O)CO [2DG, 2-deoxy-D-glucose]",effect on the growth of HUVEC,"[1]; Example 1, 0.1-20 mM, 48 hrs",effect was confirmed
same,effect on the growth of HUVEC,"[1]; Example 1, 0.1-20 mM, 48 hrs, listed as 2-deoxy-D-glucose",inhibit both
same,effect on the growth of HUVEC,[1]; [5],inhibitory effect was observed; also recorded: particularly strong action
same,inhibition at 1000 µM,"[1]; Homo sapiens, HUVEC, 1 mM, 48 hrs",70%
same,antagonism of the growth inhibitory effect by D-glucose,[1],no antagonism
same,effect on the luminal formation,[2]; 10 days,effect was confirmed
same,effect on the luminal formation,"[2]; 10 days, listed as 2-deoxy-D-glucose",inhibit both
same,effect on the luminal formation of HUVEC,[2],inhibitory effect was observed; also recorded: much stronger action
same,inhibition at 100 µM,"[2]; Homo sapiens, 0.1 mM",70%
same,inhibition at 500 µM,"[2]; Homo sapiens, 0.5 mM",95%
same,antagonism of the luminal formation inhibitory effect by D-glucose,[2],antagonized
same,inhibition of the acceleration of luminal formation by VEGF,[2],inhibit the acceleration by VEGF
same,effect on the glucose up-take of HUVEC,HUVEC,inhibitory effect
same,effect on the glucose up-take accelerated by VEGF,HUVEC,inhibited
"O=C[C@H](O)[C@H](O)[C@H](O)[C@H](O)CO [A, D-allose]",effect on the growth of HUVEC,"[1]; Example 1, 0.1-20 mM, 48 hrs",effect was confirmed
same,effect on the growth of HUVEC,[1]; [5],inhibitory effect was observed
same,inhibition at 20000 µM,"[1]; Homo sapiens, HUVEC, 48 hrs",40 to 80%
same,antagonism of the growth inhibitory effect by D-glucose,[1],antagonized
same,effect on the luminal formation,[2]; 10 days,effect was confirmed
same,effect on the luminal formation of HUVEC,[2],inhibitory effect was observed
same,inhibition at 20000 µM,[2]; Homo sapiens,50 to 80%
same,antagonism of the luminal formation inhibitory effect by D-glucose,[2],no apparent effect
same,inhibition of the acceleration of luminal formation by VEGF,[2],inhibit the acceleration by VEGF
same,effect on the glucose up-take of HUVEC,HUVEC,inhibitory effect
same,effect on the glucose up-take accelerated by VEGF,HUVEC,inhibited
same,result of the basic safety test,[3],no problem
O=C[C@H](O)[C@H](O)[C@H](O)[C@H](O)CO [Allose],Ald type (%),[4],1.38%
same,Fra α (%),[4],5%
same,Fra β (%),[4],7%
same,Pira β (%),[4],70%
O=C[C@@H](O)[C@H](O)[C@H](O)CO [Arabinose],Ald type (%),[4],0.28%
same,C1/1C,[4]; chair form of pyranose α,1C
same,C1/1C,[4]; chair form of pyranose β,mix
same,Fra α + Fra β total (%),"[4]; furanose, total of α and β",total 3%
same,Pira β (%),[4],34%
O=C[C@H](O)[C@@H](O)[C@H](O)[C@H](O)CO [D-glucose],effect on the growth of HUVEC,"[1]; Example 1, 0.1-20 mM, 48 hrs",no difference; also recorded: does not inhibit
same,effect on the luminal formation,[2]; 10 days,does not inhibit
same,share of the chair type C1,[4]; in an aqueous solution,~100%
O=C(CO)[C@@H](O)[C@H](O)[C@H](O)CO [Fructose],C1/1C,[4]; chair form of pyranose α,mix
same,C1/1C,[4]; chair form of pyranose β,1C
same,Pira α (%),[4],28%
same,Pira β (%),[4],72%
O=C[C@H](O)[C@@H](O)[C@@H](O)[C@H](O)CO [Galactose],Ald type (%),[4],0.082%
same,Fra α (%),[4],trace
same,Fra β (%),[4],trace
same,Pira β (%),[4],64%
O=C[C@@H](O)[C@H](O)[C@@H](O)[C@H](O)CO [Idose],C1/1C,[4]; chair form of pyranose α,mix
same,Fra α (%),[4],16%
same,Fra β (%),[4],16%
same,Pira β (%),[4],37%
"O=C[C@@H](O)[C@@H](O)[C@@H](O)CO [LRI, L-ribose]",effect on the growth of HUVEC,"[1]; Example 1, 0.1-20 mM, 48 hrs",no influence
same,effect on the luminal formation,[2]; 10 days,effect was confirmed
same,effect on the luminal formation of HUVEC,[2],inhibitory effect was observed
same,inhibition at 20000 µM,[2]; Homo sapiens,50 to 80%
same,antagonism of the luminal formation inhibitory effect by D-glucose,[2],no apparent effect
same,inhibition of the acceleration of luminal formation by VEGF,[2],inhibit the acceleration by VEGF
O=C[C@@H](O)[C@@H](O)[C@H](O)CO [Lyxose],Ald type (%),[4],0.4%
same,C1/1C,[4]; chair form of pyranose α,mix
same,Pira β (%),[4],28%
"O=C[C@@H](O)[C@@H](O)[C@H](O)[C@H](O)CO [MAN, D-mannose]",effect on the growth of HUVEC,"[1]; Example 1, 0.1-20 mM, 48 hrs",effect was confirmed; also recorded: inhibitory effect for growth
same,effect on the growth of HUVEC,[1]; [5],inhibitory effect was observed
same,inhibition at 20000 µM,"[1]; Homo sapiens, HUVEC, 48 hrs",40 to 80%
same,antagonism of the growth inhibitory effect by D-glucose,[1],antagonized
same,effect on the luminal formation,[2]; 10 days,no influence
same,effect on the glucose up-take of HUVEC,HUVEC,inhibitory effect
same,effect on the glucose up-take accelerated by VEGF,HUVEC,inhibited
"O=C(CO)[C@H](O)[C@H](O)[C@H](O)CO [PSI, D-psicose]",effect on the growth of HUVEC,[1]; [5],no remarkable effect
same,result of the basic safety test,[3],no problem
O=C(CO)[C@H](O)[C@H](O)[C@H](O)CO [Psicose],C1/1C,[4]; chair form of pyranose β,1C
same,Pira α (%),[4],33%
same,Pira β (%),[4],67%
"O=C[C@H](O)[C@H](O)[C@H](O)CO [RIB, D-ribose]",effect on the growth of HUVEC,"[1]; Example 1, 0.1-20 mM, 48 hrs",no influence
same,effect on the luminal formation,[2]; 10 days,effect was confirmed
same,effect on the luminal formation of HUVEC,[2],inhibitory effect was observed
same,inhibition at 20000 µM,[2]; Homo sapiens,50 to 80%
same,antagonism of the luminal formation inhibitory effect by D-glucose,[2],no apparent effect
same,inhibition of the acceleration of luminal formation by VEGF,[2],inhibit the acceleration by VEGF
O=C[C@H](O)[C@H](O)[C@H](O)CO [Ribose],Ald type (%),[4],8.5%
same,C1/1C,[4]; chair form of pyranose α,mix
same,C1/1C,[4]; chair form of pyranose β,mix
same,Fra α (%),[4],6%
same,Fra β (%),[4],18%
same,Pira β (%),[4],56%
"O=C(CO)[C@@H](O)[C@H](O)[C@@H](O)CO [SOR, L-sorbose]",effect on the growth of HUVEC,"[1]; Example 1, 0.1-20 mM, 48 hrs",effect was confirmed; also recorded: inhibitory effect for growth
same,effect on the growth of HUVEC,[1]; [5],growth inhibition; also recorded: inhibitory effect was observed
same,inhibition at 20000 µM,"[1]; Homo sapiens, HUVEC, 48 hrs",40 to 80%
same,antagonism of the growth inhibitory effect by D-glucose,[1],no antagonism
same,effect on the luminal formation,[2]; 10 days,no influence
"O=C[C@@H](O)[C@@H](O)[C@@H](O)[C@H](O)CO [TAO, D-talose]",effect on the growth of HUVEC,"[1]; Example 1, 0.1-20 mM, 48 hrs",no influence
same,effect on the luminal formation,[2]; 10 days,effect was confirmed
same,effect on the luminal formation of HUVEC,[2],inhibitory effect was observed
same,inhibition at 20000 µM,[2]; Homo sapiens,50 to 80%
O=C(CO)[C@@H](O)[C@@H](O)[C@H](O)CO [Tagatose],Pira α (%),[4],89%
same,Pira β (%),[4],11%
O=C[C@H](O)[C@@H](O)[C@H](O)CO [Xylose],Ald type (%),[4],0.17%
same,Pira β (%),[4],63%
OC[C@@H](O)[C@@H](O)[C@@H](O)[C@@H](O)CO [allitol],result of the basic safety test,[3],no problem
VEGF,cell number in comparison with the control group,"[1]; 10 ng/mL, 48 hrs",1.7±0.5 times
same,luminal area in comparison to the control group,"[2]; 10 ng/mL, 10 days",2.8±0.6 times
same,effect on the glucose up-take of HUVEC,HUVEC,accelerated
